Laboratory results from patent publication US12544395B2, “Combination compositions comprising a beta-lactamase inhibitor and uses thereof” (priority 2018, dated 2026).

Legend:
Assay type in all cases: cell-based
[1] = test system: K. pneumoniae ESBL 7 #2; test: Broth microdilution MIC (strain enzymes: SHV-12, CTX-M15, TEM-1)
[2] = test system: panel of ESBL-producing Enterobacteriaceae (40 strains); test: Broth microdilution MIC50/MIC90 summary over the panel
[3] = test system: E. coli ESBL 2; test: Broth microdilution MIC (strain enzymes: TEM-1)
[4] = test system: K. pneumoniae ESBL 10; test: Broth microdilution MIC (strain enzymes: SHV-12, TEM-1)
[5] = test system: K. pneumoniae 319478; test: Broth microdilution MIC (strain enzymes: SHV-12, CTX-M3 and TEM-1)
[6] = test system: E. coli SI-PBLII; test: Broth microdilution MIC (strain enzymes: CTX-M2, TEM-1)
[7] = test system: E. coli 2806; test: Broth microdilution MIC (strain enzymes: SHV-12, TEM-1)
[8] = test system: K. pneumoniae 11/23 LF#2; test: microbe, parasite or virus in culture
[9] = test system: E. coli 2150; test: Broth microdilution MIC (strain enzymes: SHV-3, TEM-1)
[10] = test system: K. pneumoniae 115468; test: Broth microdilution MIC (strain enzymes: TEM-1)

Compound: CCC(=O)N[C@H]1Cc2cccc(C(=O)O)c2OB1O [Compound 2, (R)-2-hydroxy-3-propionamido-3,4-dihydro-2H-benzo[e][1,2]oxaborinine-8-carboxylic acid]
- MIC of cefalexin (LEX) ([1]; with inhibitor at 1 μg/mL): >32 µg/mL
- MIC of cefdinir (CDR) ([1]; with inhibitor at 1 μg/mL): >32 µg/mL
- MIC of cefixime (CFM) ([1]; with inhibitor at 1 μg/mL): 8 µg/mL
- MIC of ceftibuten (CTB) ([1]; with inhibitor at 1 μg/mL): 4 µg/mL
- MIC of cefalexin (LEX) ([1]; with inhibitor at 2 μg/mL): 32 µg/mL
- MIC of cefdinir (CDR) ([1]; with inhibitor at 2 μg/mL): 32 µg/mL
- MIC of cefixime (CFM) ([1]; with inhibitor at 2 μg/mL): 8 µg/mL
- MIC of ceftibuten (CTB) ([1]; with inhibitor at 2 μg/mL): 2 µg/mL
- MIC of cefalexin (LEX) ([1]; with inhibitor at 4 μg/mL): 16 µg/mL
- MIC of cefdinir (CDR) ([1]; with inhibitor at 4 μg/mL): 16 µg/mL
- MIC of cefixime (CFM) ([1]; with inhibitor at 4 μg/mL): 1 µg/mL
- MIC of ceftibuten (CTB) ([1]; with inhibitor at 4 μg/mL): 1 µg/mL
- Cefdinir MIC50 ([2]; with inhibitor at 1 μg/mL): 0.5 µg/mL
- Cefdinir MIC90 ([2]; with inhibitor at 1 μg/mL): 4 µg/mL
- Cefixime MIC50 ([2]; with inhibitor at 1 μg/mL): 1 µg/mL
- Cefixime MIC90 ([2]; with inhibitor at 1 μg/mL): 4 µg/mL
- Cefpodoxime MIC50 ([2]; with inhibitor at 1 μg/mL): 1 µg/mL
- Cefpodoxime MIC90 ([2]; with inhibitor at 1 μg/mL): 8 µg/mL
- Ceftibuten MIC50 ([2]; with inhibitor at 1 μg/mL): 0.125 µg/mL
- Ceftibuten MIC90 ([2]; with inhibitor at 1 μg/mL): 0.5 µg/mL
- Cephalexin MIC50 ([2]; with inhibitor at 1 μg/mL): 8 µg/mL
- Cephalexin MIC90 ([2]; with inhibitor at 1 μg/mL): 32 µg/mL
- Cefdinir MIC50 ([2]; with inhibitor at 2 μg/mL): 0.5 µg/mL
- Cefdinir MIC90 ([2]; with inhibitor at 2 μg/mL): 2 µg/mL
- Cefixime MIC50 ([2]; with inhibitor at 2 μg/mL): 0.5 µg/mL
- Cefixime MIC90 ([2]; with inhibitor at 2 μg/mL): 4 µg/mL
- Cefpodoxime MIC50 ([2]; with inhibitor at 2 μg/mL): 1 µg/mL
- Cefpodoxime MIC90 ([2]; with inhibitor at 2 μg/mL): 2 µg/mL
- Ceftibuten MIC50 ([2]; with inhibitor at 2 μg/mL): 0.125 µg/mL
- Ceftibuten MIC90 ([2]; with inhibitor at 2 μg/mL): 0.25 µg/mL
- Cephalexin MIC50 ([2]; with inhibitor at 2 μg/mL): 8 µg/mL
- Cephalexin MIC90 ([2]; with inhibitor at 2 μg/mL): 32 µg/mL
- Cefdinir MIC50 ([2]; with inhibitor at 4 μg/mL): 0.5 µg/mL
- Cefdinir MIC90 ([2]; with inhibitor at 4 μg/mL): 2 µg/mL
- Cefixime MIC50 ([2]; with inhibitor at 4 μg/mL): 0.25 µg/mL
- Cefixime MIC90 ([2]; with inhibitor at 4 μg/mL): 1 µg/mL
- Cefpodoxime MIC50 ([2]; with inhibitor at 4 μg/mL): 1 µg/mL
- Cefpodoxime MIC90 ([2]; with inhibitor at 4 μg/mL): 2 µg/mL
- Ceftibuten MIC50 ([2]; with inhibitor at 4 μg/mL): 0.125 µg/mL
- Ceftibuten MIC90 ([2]; with inhibitor at 4 μg/mL): 0.25 µg/mL
- Cephalexin MIC50 ([2]; with inhibitor at 4 μg/mL): 8 µg/mL
- Cephalexin MIC90 ([2]; with inhibitor at 4 μg/mL): 16 µg/mL
- MIC of cefalexin (LEX) ([3]; with inhibitor at 1 μg/mL): 0.5 µg/mL
- MIC of cefdinir (CDR) ([3]; with inhibitor at 1 μg/mL): 0.5 µg/mL
- MIC of cefixime (CFM) ([3]; with inhibitor at 1 μg/mL): 0.25 µg/mL
- MIC of ceftibuten (CTB) ([3]; with inhibitor at 1 μg/mL): 0.125 µg/mL
- MIC of cefalexin (LEX) ([3]; with inhibitor at 2 μg/mL): 0.5 µg/mL
- MIC of cefdinir (CDR) ([3]; with inhibitor at 2 μg/mL): 0.5 µg/mL
- MIC of cefixime (CFM) ([3]; with inhibitor at 2 μg/mL): 0.25 µg/mL
- MIC of ceftibuten (CTB) ([3]; with inhibitor at 2 μg/mL): 0.125 µg/mL
- MIC of cefalexin (LEX) ([3]; with inhibitor at 4 μg/mL): 0.25 µg/mL
- MIC of cefdinir (CDR) ([3]; with inhibitor at 4 μg/mL): 0.25 µg/mL
- MIC of cefixime (CFM) ([3]; with inhibitor at 4 μg/mL): 0.125 µg/mL
- MIC of ceftibuten (CTB) ([3]; with inhibitor at 4 μg/mL): 0.125 µg/mL
- MIC of cefalexin (LEX) ([4]; with inhibitor at 1 μg/mL): 1 µg/mL
- MIC of cefdinir (CDR) ([4]; with inhibitor at 1 μg/mL): 1 µg/mL
- MIC of cefixime (CFM) ([4]; with inhibitor at 1 μg/mL): 2 µg/mL
- MIC of ceftibuten (CTB) ([4]; with inhibitor at 1 μg/mL): 0.25 µg/mL
- MIC of cefalexin (LEX) ([4]; with inhibitor at 2 μg/mL): 1 µg/mL
- MIC of cefdinir (CDR) ([4]; with inhibitor at 2 μg/mL): 1 µg/mL
- MIC of cefixime (CFM) ([4]; with inhibitor at 2 μg/mL): 1 µg/mL
- MIC of ceftibuten (CTB) ([4]; with inhibitor at 2 μg/mL): 0.25 µg/mL
- MIC of cefalexin (LEX) ([4]; with inhibitor at 4 μg/mL): 0.5 µg/mL
- MIC of cefdinir (CDR) ([4]; with inhibitor at 4 μg/mL): 0.5 µg/mL
- MIC of cefixime (CFM) ([4]; with inhibitor at 4 μg/mL): 0.5 µg/mL
- MIC of ceftibuten (CTB) ([4]; with inhibitor at 4 μg/mL): 0.25 µg/mL
- MIC of cefalexin (LEX) ([5]; with inhibitor at 1 μg/mL): 4 µg/mL
- MIC of cefdinir (CDR) ([5]; with inhibitor at 1 μg/mL): 4 µg/mL
- MIC of cefixime (CFM) ([5]; with inhibitor at 1 μg/mL): 2 µg/mL
- MIC of ceftibuten (CTB) ([5]; with inhibitor at 1 μg/mL): 0.125 µg/mL
- MIC of cefalexin (LEX) ([5]; with inhibitor at 2 μg/mL): 2 µg/mL
- MIC of cefdinir (CDR) ([5]; with inhibitor at 2 μg/mL): 2 µg/mL
- MIC of cefixime (CFM) ([5]; with inhibitor at 2 μg/mL): 2 µg/mL
- MIC of ceftibuten (CTB) ([5]; with inhibitor at 2 μg/mL): 0.25 µg/mL
- MIC of cefalexin (LEX) ([5]; with inhibitor at 4 μg/mL): 2 µg/mL
- MIC of cefdinir (CDR) ([5]; with inhibitor at 4 μg/mL): 2 µg/mL
- MIC of cefixime (CFM) ([5]; with inhibitor at 4 μg/mL): 1 µg/mL
- MIC of ceftibuten (CTB) ([5]; with inhibitor at 4 μg/mL): 0.125 µg/mL
- MIC of cefalexin (LEX) ([6]; with inhibitor at 1 μg/mL): 0.25 µg/mL
- MIC of cefdinir (CDR) ([6]; with inhibitor at 1 μg/mL): 0.25 µg/mL
- MIC of cefixime (CFM) ([6]; with inhibitor at 1 μg/mL): 0.25 µg/mL
- MIC of ceftibuten (CTB) ([6]; with inhibitor at 1 μg/mL): 0.125 µg/mL
- MIC of cefalexin (LEX) ([6]; with inhibitor at 2 μg/mL): 0.25 µg/mL
- MIC of cefdinir (CDR) ([6]; with inhibitor at 2 μg/mL): 0.25 µg/mL
- MIC of cefixime (CFM) ([6]; with inhibitor at 2 μg/mL): 0.25 µg/mL
- MIC of ceftibuten (CTB) ([6]; with inhibitor at 2 μg/mL): 0.125 µg/mL
- MIC of cefalexin (LEX) ([6]; with inhibitor at 4 μg/mL): 0.25 µg/mL
- MIC of cefdinir (CDR) ([6]; with inhibitor at 4 μg/mL): 0.25 µg/mL
- MIC of cefixime (CFM) ([6]; with inhibitor at 4 μg/mL): 0.25 µg/mL
- MIC of ceftibuten (CTB) ([6]; with inhibitor at 4 μg/mL): 0.125 µg/mL
- MIC of cefalexin (LEX) ([7]; with inhibitor at 1 μg/mL): 0.125 µg/mL
- MIC of cefdinir (CDR) ([7]; with inhibitor at 1 μg/mL): 0.125 µg/mL
- MIC of cefixime (CFM) ([7]; with inhibitor at 1 μg/mL): 0.25 µg/mL
- MIC of ceftibuten (CTB) ([7]; with inhibitor at 1 μg/mL): 0.06 µg/mL
- MIC of cefalexin (LEX) ([7]; with inhibitor at 2 μg/mL): 0.125 µg/mL
- MIC of cefdinir (CDR) ([7]; with inhibitor at 2 μg/mL): 0.125 µg/mL
- MIC of cefixime (CFM) ([7]; with inhibitor at 2 μg/mL): 0.125 µg/mL
- MIC of ceftibuten (CTB) ([7]; with inhibitor at 2 μg/mL): 0.125 µg/mL
- MIC of cefalexin (LEX) ([7]; with inhibitor at 4 μg/mL): 0.25 µg/mL
- MIC of cefdinir (CDR) ([7]; with inhibitor at 4 μg/mL): 0.25 µg/mL
- MIC of cefixime (CFM) ([7]; with inhibitor at 4 μg/mL): 0.125 µg/mL
- MIC of ceftibuten (CTB) ([7]; with inhibitor at 4 μg/mL): 0.125 µg/mL
- MIC of cefalexin (LEX) ([8]; with inhibitor at 1 μg/mL): 0.25 µg/mL
- MIC of cefdinir (CDR) ([8]; with inhibitor at 1 μg/mL): 0.25 µg/mL
- MIC of cefixime (CFM) ([8]; with inhibitor at 1 μg/mL): 4 µg/mL
- MIC of ceftibuten (CTB) ([8]; with inhibitor at 1 μg/mL): 0.25 µg/mL
- MIC of cefalexin (LEX) ([8]; with inhibitor at 2 μg/mL): 0.5 µg/mL
- MIC of cefdinir (CDR) ([8]; with inhibitor at 2 μg/mL): 0.5 µg/mL
- MIC of cefixime (CFM) ([8]; with inhibitor at 2 μg/mL): 2 µg/mL
- MIC of ceftibuten (CTB) ([8]; with inhibitor at 2 μg/mL): 0.25 µg/mL
- MIC of cefalexin (LEX) ([8]; with inhibitor at 4 μg/mL): 0.25 µg/mL
- MIC of cefdinir (CDR) ([8]; with inhibitor at 4 μg/mL): 0.25 µg/mL
- MIC of cefixime (CFM) ([8]; with inhibitor at 4 μg/mL): 1 µg/mL
- MIC of ceftibuten (CTB) ([8]; with inhibitor at 4 μg/mL): 0.125 µg/mL
- MIC of cefalexin (LEX) ([9]; with inhibitor at 1 μg/mL): 1 µg/mL
- MIC of cefdinir (CDR) ([9]; with inhibitor at 1 μg/mL): 1 µg/mL
- MIC of cefixime (CFM) ([9]; with inhibitor at 1 μg/mL): 0.5 µg/mL
- MIC of ceftibuten (CTB) ([9]; with inhibitor at 1 μg/mL): 0.125 µg/mL
- MIC of cefalexin (LEX) ([9]; with inhibitor at 2 μg/mL): 0.5 µg/mL
- MIC of cefdinir (CDR) ([9]; with inhibitor at 2 μg/mL): 0.5 µg/mL
- MIC of cefixime (CFM) ([9]; with inhibitor at 2 μg/mL): 0.5 µg/mL
- MIC of ceftibuten (CTB) ([9]; with inhibitor at 2 μg/mL): 0.125 µg/mL
- MIC of cefalexin (LEX) ([9]; with inhibitor at 4 μg/mL): 0.5 µg/mL
- MIC of cefdinir (CDR) ([9]; with inhibitor at 4 μg/mL): 0.5 µg/mL
- MIC of cefixime (CFM) ([9]; with inhibitor at 4 μg/mL): 0.25 µg/mL
- MIC of ceftibuten (CTB) ([9]; with inhibitor at 4 μg/mL): 0.06 µg/mL
- MIC of cefalexin (LEX) ([10]; with inhibitor at 1 μg/mL): 0.5 µg/mL
- MIC of cefdinir (CDR) ([10]; with inhibitor at 1 μg/mL): 0.5 µg/mL
- MIC of cefixime (CFM) ([10]; with inhibitor at 1 μg/mL): 2 µg/mL
- MIC of ceftibuten (CTB) ([10]; with inhibitor at 1 μg/mL): 0.06 µg/mL
- MIC of cefalexin (LEX) ([10]; with inhibitor at 2 μg/mL): 0.25 µg/mL
- MIC of cefdinir (CDR) ([10]; with inhibitor at 2 μg/mL): 0.25 µg/mL
- MIC of cefixime (CFM) ([10]; with inhibitor at 2 μg/mL): 0.5 µg/mL
- MIC of ceftibuten (CTB) ([10]; with inhibitor at 2 μg/mL): 0.06 µg/mL
- MIC of cefalexin (LEX) ([10]; with inhibitor at 4 μg/mL): 0.125 µg/mL
